The values that follow come from patent US10941138B2, “Quinoline and isoquinoline derivatives for treating pain and pain related conditions” (ESTEVE PHARMACEUTICALS, S.A., priority 2016, dated 2021).

Where two headings read alike, the source gives them in different places.

For assay [1], the target named is human α2δ-1 subunit of Cav2.2 calcium channel (Homo sapiens (Human), UniProt P54289). The assay can be described thus: Binding assay to human α2δ-1 subunit of Cav2.2 calcium channel ([3H]-Gabapentin). Particulars: read-out: Ki (nM) alpha2delta Hum. The method, then:
Binding Assay to Human α2δ-1 Subunit of Cav2.2 Calcium Channel.
Human α2δ-1 enriched membranes (2.5 μg) were incubated with 15 nM of radiolabeled [3H]-Gabapentin in assay buffer containing Hepes-KOH 10 mM, pH 7.4.
NSB (non specific binding) was measured by adding 10 μM pregabalin. The binding of the test compound was measured at five different concentrations. After 60 min incubation at 27° C., binding reaction was terminated by filtering through Multiscreen GF/C (Millipore) presoaked in 0.5% polyethyleneimine in Vacuum Manifold Station, followed by 3 washes with ice-cold filtration buffer containing 50 mM Tris-HCl, pH 7.4. Filter plates were dried at 60° C. for 1 h and 30 μl of scintillation cocktail were added to each well before radioactivity reading.
(§1) Readings were performed in a Trilux 1450 Microbeta radioactive counter (Perkin Elmer).

The target of assay [2] is human norepinephrine transporter (NET) (Homo sapiens (Human), UniProt P23975). The assay can be described thus: Binding assay to human norepinephrine transporter (NET) ([3H]-Nisoxetin). The following applies: Table 2, dual compounds, human NET enriched membranes, read-out: Ki (nM) NET Hum. As for the experimental part:
Binding Assay to Human Norepinephrine Transporter (NET).
Human norepinephrine transporter (NET) enriched membranes (5 μg) were incubated with 5 nM of radiolabeled [3H]-Nisoxetin in assay buffer containing 50 mM Tris-HCl, 120 mM NaCl, 5 mM KCl, pH 7.4.
NSB (non specific binding) was measured by adding desipramine 10 μM. The binding of the test compound was measured at five different concentrations. After 60 min incubation at 4° C., binding reaction was terminated by filtering through Multiscreen GF/C (Millipore) presoaked in 0.5% polyethyleneimine in Vacuum Manifold Station, followed by 3 washes with ice-cold filtration buffer containing 50 mM Tris-HCl, 0.9% NaCl, pH 7.4.
Filter plates were dried at 60° C. for 1 h and 30 μl of scintillation cocktail were added to each well before radioactivity reading.
as §1

The mark [3] stands for this setting: Table 1, human α2δ-1 enriched membranes.
Where [4] appears, read: Table 2, dual compounds, human α2δ-1 enriched membranes.

human α2δ-1 subunit of Cav2.2 calcium channel, sequence (P54289 25-1103): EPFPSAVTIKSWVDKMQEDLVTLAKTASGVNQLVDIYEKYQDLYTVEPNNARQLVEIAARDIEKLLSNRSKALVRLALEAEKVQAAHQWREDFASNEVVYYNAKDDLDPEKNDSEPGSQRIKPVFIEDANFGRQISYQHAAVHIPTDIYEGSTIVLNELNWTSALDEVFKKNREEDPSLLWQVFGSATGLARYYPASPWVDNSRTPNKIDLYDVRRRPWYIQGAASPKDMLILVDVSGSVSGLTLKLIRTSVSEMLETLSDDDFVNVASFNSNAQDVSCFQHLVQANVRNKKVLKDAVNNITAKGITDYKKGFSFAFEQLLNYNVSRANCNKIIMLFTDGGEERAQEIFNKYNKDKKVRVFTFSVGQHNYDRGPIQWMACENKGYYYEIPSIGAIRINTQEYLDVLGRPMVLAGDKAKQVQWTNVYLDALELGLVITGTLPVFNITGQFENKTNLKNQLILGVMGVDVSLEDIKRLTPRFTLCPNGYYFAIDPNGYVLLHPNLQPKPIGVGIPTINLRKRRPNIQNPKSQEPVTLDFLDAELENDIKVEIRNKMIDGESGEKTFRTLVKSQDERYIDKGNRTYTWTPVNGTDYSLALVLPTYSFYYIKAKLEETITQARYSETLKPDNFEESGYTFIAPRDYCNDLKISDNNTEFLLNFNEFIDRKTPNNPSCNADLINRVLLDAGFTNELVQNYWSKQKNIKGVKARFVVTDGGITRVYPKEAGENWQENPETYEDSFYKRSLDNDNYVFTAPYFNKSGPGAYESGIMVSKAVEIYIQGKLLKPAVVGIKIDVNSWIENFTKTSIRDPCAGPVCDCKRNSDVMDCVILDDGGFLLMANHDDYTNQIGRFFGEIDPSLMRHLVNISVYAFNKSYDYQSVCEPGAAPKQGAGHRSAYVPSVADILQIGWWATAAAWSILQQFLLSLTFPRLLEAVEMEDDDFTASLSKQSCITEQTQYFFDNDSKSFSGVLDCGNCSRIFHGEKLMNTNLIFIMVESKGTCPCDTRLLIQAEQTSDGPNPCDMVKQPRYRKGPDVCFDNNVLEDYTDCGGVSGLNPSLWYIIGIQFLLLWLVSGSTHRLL
human norepinephrine transporter (NET), sequence (P23975 whole entry): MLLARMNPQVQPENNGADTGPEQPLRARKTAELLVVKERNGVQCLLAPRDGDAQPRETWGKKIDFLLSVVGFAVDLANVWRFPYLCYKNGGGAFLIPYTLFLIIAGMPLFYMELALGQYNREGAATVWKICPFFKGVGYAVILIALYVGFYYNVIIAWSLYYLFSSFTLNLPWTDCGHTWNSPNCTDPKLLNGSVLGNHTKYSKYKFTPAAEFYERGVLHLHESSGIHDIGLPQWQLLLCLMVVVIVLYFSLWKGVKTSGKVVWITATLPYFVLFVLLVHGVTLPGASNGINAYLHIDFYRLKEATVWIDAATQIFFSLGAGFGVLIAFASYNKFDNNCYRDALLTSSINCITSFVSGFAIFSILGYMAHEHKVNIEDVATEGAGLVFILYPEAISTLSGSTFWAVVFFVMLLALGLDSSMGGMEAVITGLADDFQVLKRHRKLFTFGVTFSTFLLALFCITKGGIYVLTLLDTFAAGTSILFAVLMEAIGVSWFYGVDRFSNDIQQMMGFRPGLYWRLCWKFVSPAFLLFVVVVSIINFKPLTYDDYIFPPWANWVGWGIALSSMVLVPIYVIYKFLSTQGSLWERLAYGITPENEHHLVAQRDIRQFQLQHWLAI

As to `CNCCC(Oc1cccc2ncccc12)c1cccs1` (stereo not shown) [Example 2, N-methyl-3-(quinolin-5-yloxy)-3-(thiophen-2-yl)propan-1-amine], the Ki in assay [1] (setting [3]), in assay [1] (setting [4]) and in assay [2] was 100 to 500 nM each time.

Turning to `CNCCC(Oc1cccc2ccncc12)c1sccc1F` (stereo not shown) [Example 47, 3-(3-fluorothiophen-2-yl)-3-(isoquinolin-8-yloxy)-N-methylpropan-1-amine], the Ki in assay [1] (setting [3]), in assay [1] (setting [4]) and in assay [2] was 100 to 500 nM in each case.

For `CNCC[C@H](Oc1cccc2ncccc12)c1ccc(F)s1` [Example 51, (S)-3-(5-fluorothiophen-2-yl)-N-methyl-3-(quinolin-5-yloxy)propan-1-amine], the Ki in assay [1] (setting [3]), in assay [1] (setting [4]) and in assay [2] was 100 to 500 nM in each case.

For `CNCC[C@@H](Oc1cccc2ncccc12)c1sccc1F` [Example 85, (R)-3-(3-fluorothiophen-2-yl)-N-methyl-3-(quinolin-5-yloxy)propan-1-amine], the Ki in assay [1] (setting [3]) is 500 to 3000 nM; in assay [1] (setting [4]) it was 500 to 3000 nM; in assay [2], 100 to 500 nM.

In the case of `CNCCC(Oc1cccc2ccncc12)c1cc(C(F)(F)F)ccn1` (stereo not shown) [Example 30, 3-(isoquinolin-8-yloxy)-N-methyl-3-(4-(trifluoromethyl)pyridin-2-yl)propan-1-amine], the Ki in assay [1] (setting [3]) is ≥ 3000 nM; in assay [1] (setting [4]), ≥ 3000 nM; in assay [2], 500 to 1000 nM.

With `CNCC[C@H](Oc1cccc2c(C)nccc12)c1cccs1` [Example 65, (S)-N-methyl-3-((1-methylisoquinolin-5-yl)oxy)-3-(thiophen-2-yl)propan-1-amine], the Ki in assay [1] (setting [3]) is ≥ 3000 nM; in assay [1] (setting [4]), ≥ 3000 nM; in assay [2] it was 100 to 500 nM.

For `CNCCC(Oc1cccc2cnccc12)c1ccsc1` (stereo not shown) [Example 56, 3-(isoquinolin-5-yloxy)-N-methyl-3-(thiophen-3-yl)propan-1-amine], the Ki in assay [1] (setting [3]) was 100 to 500 nM; in assay [1] (setting [4]) it was 100 to 500 nM; in assay [2] it was < 100 nM.

Regarding `CNCC[C@@H](Oc1cccc2ccncc12)c1cccs1` [Example 13, (R)-3-(isoquinolin-8-yloxy)-N-methyl-3-(thiophen-2-yl)propan-1-amine], the Ki in assay [1] (setting [3]), in assay [1] (setting [4]) and in assay [2] was 100 to 500 nM each time.

On to `CNCC[C@H](Oc1cccc2ncccc12)c1ccc(Cl)s1` [Example 78, (S)-3-(5-Chlorothiophen-2-yl)-N-methyl-3-(quinolin-5-yloxy)propan-1-amine], for which the Ki fell in the range of 500 to 3000 nM in assay [1] (setting [3]), 500 to 3000 nM in assay [1] (setting [4]) and 100 to 500 nM in assay [2].

In the case of `CNCC[C@H](Oc1cccc2ccncc12)c1ccsc1` [Example 69, (S)-3-(isoquinolin-8-yloxy)-N-methyl-3-(thiophen-3-yl)propan-1-amine], the Ki in assay [1] (setting [3]) is ≥ 3000 nM; in assay [1] (setting [4]), ≥ 3000 nM; in assay [2], 500 to 1000 nM.

Regarding `CNCC[C@@H](Oc1cccc2cnccc12)c1ccc(F)s1` [Example 52, (R)-3-(5-fluorothiophen-2-yl)-3-(isoquinolin-5-yloxy)-N-methylpropan-1-amine], the Ki in assay [1] (setting [3]) is < 100 nM; in assay [1] (setting [4]), < 100 nM; in assay [2], 100 to 500 nM.

For the compound `CNCC[C@@H](Oc1cccc2ccncc12)c1ccc(F)s1` [Example 81, (R)-3-(5-fluorothiophen-2-yl)-3-(isoquinolin-8-yloxy)-N-methylpropan-1-amine], the Ki in assay [1] (setting [3]), in assay [1] (setting [4]) and in assay [2] was 100 to 500 nM throughout.

Turning to `CNCCC(Oc1cccc2cccnc12)c1cccs1` (stereo not shown) [Example 1, N-Methyl-3-(quinolin-8-yloxy)-3-(thiophen-2-yl)propan-1-amine], the values for the Ki in assay [1] (setting [3]), in assay [1] (setting [4]) and in assay [2] were ≥ 3000 nM, ≥ 3000 nM and < 100 nM, respectively.

With `CNCCC(Oc1cccc2ccncc12)c1ccsc1` (stereo not shown) [Example 58, 3-(isoquinolin-8-yloxy)-N-methyl-3-(thiophen-3-yl)propan-1-amine], the figures for the Ki in assay [1] (setting [3]), in assay [1] (setting [4]) and in assay [2] were 100 to 500 nM, 100 to 500 nM and 500 to 1000 nM, respectively.

Take `CNCC[C@H](Oc1cccc2cnccc12)c1ccsc1` [Example 68, (S)-3-(isoquinolin-5-yloxy)-N-methyl-3-(thiophen-3-yl)propan-1-amine]: the values for the Ki in assay [1] (setting [3]), in assay [1] (setting [4]) and in assay [2] were ≥ 3000 nM, ≥ 3000 nM and < 100 nM, respectively.

`CNCC[C@@H](Oc1cccc2cnccc12)c1cccs1` [Example 14, (R)-3-(isoquinolin-5-yloxy)-N-methyl-3-(thiophen-2-yl)propan-1-amine]: the Ki in assay [1] (setting [3]), in assay [1] (setting [4]) and in assay [2] was 100 to 500 nM each time.

Turning to `CNCCC(Oc1cccc2ncccc12)c1nccs1` (stereo not shown) [Example 72, N-methyl-3-(quinolin-5-yloxy)-3-(thiazol-2-yl)propan-1-amine], the Ki in assay [1] (setting [3]) lay within 100 to 500 nM; in assay [1] (setting [4]), 100 to 500 nM; in assay [2] it was 500 to 1000 nM.

For the compound `CNCC[C@@H](Oc1cccc2ccncc12)c1ccsc1` [Example 61, (R)-3-(isoquinolin-8-yloxy)-N-methyl-3-(thiophen-3-yl)propan-1-amine], the Ki in assay [1] (setting [3]), in assay [1] (setting [4]) and in assay [2] was 100 to 500 nM each time.

Take `CNCCC(Oc1cccc2cnccc12)c1ccncc1` (stereo not shown) [Example 25, 3-(isoquinolin-5-yloxy)-N-methyl-3-(pyridin-4-yl)propan-1-amine]: the Ki in assay [1] (setting [3]) was ≥ 3000 nM; in assay [1] (setting [4]), ≥ 3000 nM; in assay [2], 100 to 500 nM.

In the case of `CNCC[C@@H](Oc1cccc2cnccc12)c1sccc1F` [Example 83, (R)-3-(3-fluorothiophen-2-yl)-3-(isoquinolin-5-yloxy)-N-methylpropan-1-amine], the Ki in assay [1] (setting [3]), in assay [1] (setting [4]) and in assay [2] was 100 to 500 nM in each case.

On to `CNCC[C@@H](Oc1cnc2ccccc2c1)c1cccs1` [Example 94, (R)-N-methyl-3-(quinolin-3-yloxy)-3-(thiophen-2-yl)propan-1-amine], for which the Ki in assay [1] (setting [3]) was ≥ 3000 nM; in assay [1] (setting [4]), ≥ 3000 nM; in assay [2] it was 100 to 500 nM.

In the case of `CNCC[C@@H](Oc1cccc2ccnc(C)c12)c1cccs1` [Example 62, (R)-N-methyl-3-((1-methylisoquinolin-8-yl)oxy)-3-(thiophen-2-yl)propan-1-amine], the results for the Ki in assay [1] (setting [3]), in assay [1] (setting [4]) and in assay [2] were < 100 nM, < 100 nM and 500 to 1000 nM, respectively.

For `CNCCC(Oc1cccc2cnccc12)C1CCOCC1` (stereo not shown) [Example 18, 3-(isoquinolin-5-yloxy)-N-methyl-3-(tetrahydro-2H-pyran-4-yl)propan-1-amine], the figures for the Ki in assay [1] (setting [3]), in assay [1] (setting [4]) and in assay [2] were ≥ 3000 nM, ≥ 3000 nM and 100 to 500 nM, respectively.

As to `CNCCC(Oc1ccc2cnccc2c1)c1cccs1` (stereo not shown) [Example 54, 3-(isoquinolin-6-yloxy)-N-methyl-3-(thiophen-2-yl)propan-1-amine], the Ki in assay [1] (setting [3]) fell in the range of 500 to 3000 nM; in assay [1] (setting [4]), 500 to 3000 nM; in assay [2], 100 to 500 nM.

For `CNCCC(Oc1cccc2ncccc12)c1cccc(C(F)(F)F)n1` (stereo not shown) [Example 38, N-methyl-3-(quinolin-5-yloxy)-3-(6-(trifluoromethyl)pyridin-2-yl)propan-1-amine], the Ki in assay [1] (setting [3]) was ≥ 3000 nM.
